Experimental data: ChEMBL document CHEMBL4334494, “Recent advances in the targeting of human DNA ligase I as a potential new strategy for cancer treatment” (Eur J Med Chem, 2019)
pIC50: −log10 of the molar value. One block for each compound: values may come before it.

Experiments:
DNA ligase 1 [1] = target: T1, DNA ligase 1 (Homo sapiens, UniProt P18858); assay: Inhibition of human DNA ligase 1 using 52-mer DNA/25-mer DNA/27-mer DNA as substrate
MDA-MB-231 [2] = assay: Antiproliferative activity against human MDA-MB-231 cells at 10 uM after 48 hrs by MTT assay relative to control; type: functional; conditions: MDA-MB-231, 48 h
DNA ligase 1 [3] = target: T1, DNA ligase 1; assay: Inhibition of human DNA ligase 1 at 25 uM using nicked DNA as substrate after 30 mins relative to control
DNA ligase 1 [4] = target: T1, DNA ligase 1; assay: Competitive inhibition of human DNA ligase 1 using nicked DNA as substrate by high-throughput fluorescence energy transfer-based DNA joining assay
DNA ligase 1 [5] = target: T1, DNA ligase 1; assay: Inhibition of human DNA ligase 1 at 100 uM using nicked DNA as substrate by high-throughput fluorescence energy transfer-based DNA joining assay relative to control
DNA ligase 4 = target: T2, DNA ligase 4 (Homo sapiens, UniProt P49917); assay: Competitive inhibition of human DNA ligase 4 using nicked DNA as substrate by high-throughput fluorescence energy transfer-based DNA joining assay
T2 sequence (P49917 whole entry): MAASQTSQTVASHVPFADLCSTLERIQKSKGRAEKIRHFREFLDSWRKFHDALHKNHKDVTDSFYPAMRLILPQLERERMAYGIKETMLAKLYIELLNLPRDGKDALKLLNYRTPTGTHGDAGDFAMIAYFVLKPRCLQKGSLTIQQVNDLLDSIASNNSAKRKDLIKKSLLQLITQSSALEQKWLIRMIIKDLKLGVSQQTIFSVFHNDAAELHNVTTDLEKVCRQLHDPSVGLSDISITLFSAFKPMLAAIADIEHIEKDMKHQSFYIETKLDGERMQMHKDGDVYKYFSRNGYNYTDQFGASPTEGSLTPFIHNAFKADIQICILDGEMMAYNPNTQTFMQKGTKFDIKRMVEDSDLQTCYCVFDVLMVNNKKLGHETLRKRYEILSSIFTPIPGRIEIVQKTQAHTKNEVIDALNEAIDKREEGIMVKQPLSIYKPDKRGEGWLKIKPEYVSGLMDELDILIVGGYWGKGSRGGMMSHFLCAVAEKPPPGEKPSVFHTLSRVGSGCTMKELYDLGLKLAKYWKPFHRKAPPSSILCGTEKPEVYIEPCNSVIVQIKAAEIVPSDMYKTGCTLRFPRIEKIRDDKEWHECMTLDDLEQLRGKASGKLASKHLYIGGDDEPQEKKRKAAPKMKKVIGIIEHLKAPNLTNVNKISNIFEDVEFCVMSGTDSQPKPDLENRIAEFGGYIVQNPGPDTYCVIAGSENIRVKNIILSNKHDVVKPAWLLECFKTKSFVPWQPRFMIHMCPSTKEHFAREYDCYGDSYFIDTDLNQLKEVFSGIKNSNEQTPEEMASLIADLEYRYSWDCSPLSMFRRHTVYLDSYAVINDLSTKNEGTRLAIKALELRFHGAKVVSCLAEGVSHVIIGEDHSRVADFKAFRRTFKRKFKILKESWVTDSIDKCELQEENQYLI

DNA ligase 3 = target: T3, DNA ligase 3 (Homo sapiens, UniProt P49916); assay: Competitive inhibition of human DNA ligase 3 using nicked DNA as substrate by high-throughput fluorescence energy transfer-based DNA joining assay
T3 sequence (P49916 whole entry): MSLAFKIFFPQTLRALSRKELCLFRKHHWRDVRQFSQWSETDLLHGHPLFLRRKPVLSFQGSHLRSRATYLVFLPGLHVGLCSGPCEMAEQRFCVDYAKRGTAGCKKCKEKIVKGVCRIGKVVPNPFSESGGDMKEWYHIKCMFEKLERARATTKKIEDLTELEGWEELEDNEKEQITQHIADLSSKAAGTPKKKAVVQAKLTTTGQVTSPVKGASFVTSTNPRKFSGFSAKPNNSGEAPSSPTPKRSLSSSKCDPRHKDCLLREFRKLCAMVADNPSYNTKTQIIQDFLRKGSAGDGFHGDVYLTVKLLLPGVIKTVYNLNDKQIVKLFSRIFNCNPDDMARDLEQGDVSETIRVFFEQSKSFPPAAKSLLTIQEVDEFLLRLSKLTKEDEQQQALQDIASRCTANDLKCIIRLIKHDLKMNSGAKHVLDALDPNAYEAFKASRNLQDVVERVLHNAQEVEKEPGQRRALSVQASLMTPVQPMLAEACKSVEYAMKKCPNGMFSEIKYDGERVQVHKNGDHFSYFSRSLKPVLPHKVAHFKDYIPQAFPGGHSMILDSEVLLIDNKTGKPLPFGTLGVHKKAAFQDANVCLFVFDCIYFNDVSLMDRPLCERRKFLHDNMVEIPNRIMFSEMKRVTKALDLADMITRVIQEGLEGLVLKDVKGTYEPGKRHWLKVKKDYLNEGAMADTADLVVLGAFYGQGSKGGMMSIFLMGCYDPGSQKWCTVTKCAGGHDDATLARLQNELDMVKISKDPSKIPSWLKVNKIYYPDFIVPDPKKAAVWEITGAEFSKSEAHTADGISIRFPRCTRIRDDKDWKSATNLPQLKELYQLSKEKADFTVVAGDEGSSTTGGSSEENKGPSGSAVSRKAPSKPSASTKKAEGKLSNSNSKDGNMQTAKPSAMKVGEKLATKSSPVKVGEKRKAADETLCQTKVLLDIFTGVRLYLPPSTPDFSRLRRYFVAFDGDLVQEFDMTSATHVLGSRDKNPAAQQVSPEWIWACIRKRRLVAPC

HCT-116 = assay: Antiproliferative activity against human HCT116 cells relative to control; type: functional
DNA ligase 1 [6] = target: T1, DNA ligase 1; assay: Inhibition of human DNA ligase 1 expressed in Escherichia coli BL21 (DE3) cells using nicked DNA as substrate preincubated for 30 mins followed by substrate addition measured after 1 hr
DNA ligase 1 [7] = target: T1, DNA ligase 1; assay: Uncompetitive inhibition of human DNA ligase 1 using nicked DNA as substrate by high-throughput fluorescence energy transfer-based DNA joining assay
DNA ligase 1 [8] = target: T1, DNA ligase 1; assay: Inhibition of human DNA ligase 1
[9] = Antiproliferative activity against human 46BR.1G1 cells after 48 hrs by MTT assay; type: functional, cell-based
HepG2 = assay: Antiproliferative activity against human HepG2 cells after 48 hrs by MTT assay; type: functional, cell-based; conditions: HepG2, 48 h
DNA ligase 1 [10] = target: T1, DNA ligase 1; assay: Inhibition of human DNA ligase 1 at 50 uM using 52-mer DNA/25-mer DNA/27-mer DNA as substrate by fluorescence assay relative to control
DLD-1 = assay: Antiproliferative activity against human DLD1 cells after 48 hrs by MTT assay; type: functional, cell-based; conditions: DLD-1, 48 h
HEK293 = assay: Cytotoxicity against HEK293 cells after 48 hrs by MTT assay; type: cell-based; conditions: Homo sapiens, HEK293, 48 h
MDA-MB-231 [11] = assay: Antiproliferative activity against human MDA-MB-231 cells after 48 hrs by MTT assay; type: functional, cell-based; conditions: MDA-MB-231, 48 h
4T1 = assay: Antiproliferative activity against mouse 4T1 cells after 48 hrs by MTT assay; type: functional, cell-based; conditions: 4T1, 48 h
DNA ligase 1 [12] = target: T1, DNA ligase 1; assay: Inhibition of human DNA ligase 1 using nicked DNA as substrate after 30 mins relative to control

T1 sequence (P18858 whole entry): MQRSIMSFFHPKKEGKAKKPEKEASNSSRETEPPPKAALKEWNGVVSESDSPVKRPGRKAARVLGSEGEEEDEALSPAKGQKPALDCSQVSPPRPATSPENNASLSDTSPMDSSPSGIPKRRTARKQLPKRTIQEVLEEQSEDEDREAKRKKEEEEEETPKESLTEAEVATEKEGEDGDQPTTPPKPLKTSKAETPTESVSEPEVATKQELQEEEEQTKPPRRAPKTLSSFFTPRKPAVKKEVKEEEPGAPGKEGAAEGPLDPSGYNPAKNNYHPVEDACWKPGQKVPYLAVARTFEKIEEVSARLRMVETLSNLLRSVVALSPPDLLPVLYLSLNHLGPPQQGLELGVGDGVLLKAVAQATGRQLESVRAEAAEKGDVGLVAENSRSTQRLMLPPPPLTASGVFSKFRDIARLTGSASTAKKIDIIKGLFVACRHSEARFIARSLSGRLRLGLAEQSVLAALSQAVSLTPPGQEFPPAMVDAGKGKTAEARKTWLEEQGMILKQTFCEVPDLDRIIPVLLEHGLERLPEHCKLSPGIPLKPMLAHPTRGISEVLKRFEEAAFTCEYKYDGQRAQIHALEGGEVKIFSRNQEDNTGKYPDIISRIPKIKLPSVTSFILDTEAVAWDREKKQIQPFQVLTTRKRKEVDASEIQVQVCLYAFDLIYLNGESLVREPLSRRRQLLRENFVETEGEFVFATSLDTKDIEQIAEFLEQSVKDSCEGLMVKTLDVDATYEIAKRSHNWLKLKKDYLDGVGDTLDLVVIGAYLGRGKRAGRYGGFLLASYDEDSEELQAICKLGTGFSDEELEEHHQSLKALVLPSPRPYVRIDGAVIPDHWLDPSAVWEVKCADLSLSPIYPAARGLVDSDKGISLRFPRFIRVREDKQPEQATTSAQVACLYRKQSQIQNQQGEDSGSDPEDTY

SMILES: O=C1c2cc(Cl)ccc2NC(c2ccc(Br)cc2)c2cccn21 (stereo not given)
pIC50 (DNA ligase 1 [1]): 4.64

inhibition (DNA ligase 1 [3]): < 50%
SMILES: COc1cc(/C=C/c2cc(=O)oc3c2ccc2c(OC)cccc23)cc(OC)c1
inhibition at 10 µM (MDA-MB-231 [2]): > 50%

pIC50 (DNA ligase 1 [4]): 5.30 | inhibition (DNA ligase 1 [5]): 68.8% | pIC50 (DNA ligase 4): 5.30 | pIC50 (DNA ligase 3): 5.05
SMILES: Nc1nc(S)nc(O)c1/N=C/c1ccccc1
Activity (HCT-116): 70%

pIC50 (DNA ligase 1 [6]): 4.68
SMILES: O=C1/C(=N\Nc2cn[nH]c(=O)c2Cl)c2cc(Cl)ccc2N1c1ccc(F)cc1

inhibition (DNA ligase 1 [3]): < 50%
SMILES: COc1cccc(OC)c1/C=C/c1cc(=O)oc2c1ccc1ccccc12
inhibition at 10 µM (MDA-MB-231 [2]): > 50%

inhibition (DNA ligase 1 [5]): 59.8% | pIC50 (DNA ligase 1 [7]): 4.92
SMILES: O=c1[nH]ncc(N/N=C/c2ccc(O)c([N+](=O)[O-])c2)c1Cl
Activity (HCT-116): 70%

pIC50 (DNA ligase 1 [6]): 4.44
SMILES: O=C1/C(=N\Nc2cn[nH]c(=O)c2Cl)c2cc(Br)ccc2N1c1ccccc1

pIC50 (DNA ligase 1 [6]): 4.85
SMILES: Cc1ccc(N2C(=O)/C(=N\Nc3cn[nH]c(=O)c3Cl)c3ccccc32)cc1

pIC50 (DNA ligase 1 [4]): 5.00 | inhibition (DNA ligase 1 [5]): 78.3% | pIC50 (DNA ligase 3): 5.00
SMILES: Cc1c(Br)cc(NCC(=O)N/N=C/c2cc([N+](=O)[O-])ccc2O)cc1Br
Activity (HCT-116): 70%

pIC50 (DNA ligase 1 [8]): 6.00
SMILES: N[C@H](CO)Cc1cc(I)c(Oc2ccc(O)cc2)c(I)c1

pIC50 (DNA ligase 1 [1]): 4.80
SMILES: O=C1c2cc(Cl)ccc2NC(c2ccc(Cl)c(Cl)c2)c2cccn21 (stereo not given)

pIC50 (HepG2): 5.16 | inhibition (DNA ligase 1 [10]): 93.1% | pIC50 (DLD-1): 5.17 | pIC50 (MDA-MB-231 [11]): 5.15
SMILES: O=[N+]([O-])c1ccc(N/N=C(/c2ccc(O)cc2)c2cccc3ccccc23)c([N+](=O)[O-])c1
pIC50 [9]: < 4.60 | pIC50 (HEK293): 4.90

SMILES: COc1ccc(-c2cnc3c(O)nc(O)nc3n2)cc1
Activity (HCT-116): 70%

pIC50 (DNA ligase 1 [6]): 4.85
SMILES: O=C1Nc2ccc(Cl)cc2/C1=N/Nc1cn[nH]c(=O)c1Cl

inhibition (DNA ligase 1 [3]): < 50% | pIC50 (4T1): 4.94 | inhibition (DNA ligase 1 [12]): 99.3% | pIC50 (MDA-MB-231 [11]): 4.89
SMILES: COc1cc(/C=C/c2cc(=O)oc3c2ccc2ccccc23)cc(OC)c1
inhibition at 10 µM (MDA-MB-231 [2]): > 50%
